Source: patent US7084158B2, “Substituted propargylamines” (Bayer Cropscience S.A., priority 2001, dated 2006)

Legend:
Format in all cases: in vivo
Set-up in all cases: key: compounds were considered to be active when, at a concentration of 500 ppm or less, they had an activity on the harmful organisms of 50% or more
[1] = test system: Diabrotica undecimpunctata; assay: Example AC: treated soil, southern corn rootworm eggs mortality; conditions: 500 ppm or less, eggs added after 0d, 21d and 42d, after 2 weeks
Method: An aqueous solution of the formulated compound to be examined was mixed with soil. After 0d, 21d and 42d, eggs of the southern corn rootworm (Diabrotica undecimpunctata) were placed together with 2 pre-swollen maize corns into a dish, covered with the treated soil and moisted with 10 ml of water. Soil and eggs were placed in a greenhouse (23° C., 60% relative atmosphere humidity). After 2 weeks of storage, the effect of the compound on the eggs and any larvae hatched therefrom was determined (mortality). The following examples were active: 70, 60, 197, 204.

[2] = test system: Trialeurodes vaporariorum; assay: Example AD: bush beans sprayed, white fly larvicidal action; conditions: 500 ppm or less; bush beans sprayed after hatching; after 11 days
Method: For oviposition, bush beans (Phaseolus vulgaris) were populated for 48 hours with adults of the white fly (Trialeurodes vaporariorum). After the larvae had hatched, the plants were sprayed to run-off point with an aqueous solution of the formulated compound to be examined. After 11 days, the larvicidal action was determined. The following examples were active: 1036, 70, 60, 1040, 197.

Plutella maculipennis = assay: Example K: sprayed white cabbage leaf, diamondback moth larvae mortality; conditions: 500 ppm or less, after 3 days
Method: A white cabbage leaf was sprayed with an aqueous solution of the formulated compound to be examined. After the spray coating had dried, the treated leaf was populated with larvae of the diamondback moth (Plutella maculipennis). After 3 days of storage at about 23° C., the effect of the compound on the larvae was determined (mortality). The compounds of the following examples were active: 60, 70, 1002, 1004, 1005, 1036, 197.

Heliothis virescens [3] = assay: Example B: tobacco budworm eggs on filter paper/insect diet, mortality; conditions: 500 ppm or less; 24-hour-old eggs dipped, diet treated; after 6 days
[4] = test system: Leptinotarsa decemlineata; assay: Example L: potato leaves and larvae sprayed, Colorado beetle mortality; conditions: 500 ppm or less, after 4 days
Method: Potato leaves were populated with larvae of the Colorado beetle (Leptinotarsa decemlineata). Leaves and larvae were then sprayed with an aqueous solution of the formulated compound to be examined. After 4 days of storage at about 25° C., the effect of the compound on the larvae was determined (mortality). The compounds of the following examples were active: 60, 70, 1002, 1004, 1005, 1036, 1047, 197.

Spodoptera exigua = assay: Example Z: cotton leaves with larvae sprayed, sugar beet armyworm mortality; conditions: 500 ppm or less; cotton leaves populated then sprayed; L2 larvae; after 4 days
Method: Cotton leaves were populated with 5 L2 larvae of the sugar beet armyworm (Spodoptera exigua) and then sprayed with an aqueous solution of the formulated compound to be examined. After 4 days of storage at about 23° C., the mortality among the larvae was determined. The following examples were active: 1036, 70, 60, 1047, 197.

Heliothis virescens [5] = assay: Example V: dipped freeze-dried diet cube, tobacco budworm L2 larvae mortality; conditions: 500 ppm or less, after 4 days
Method: Insect diet (as freeze-dried cube) was dipped into an aqueous solution of the formulated compound to be examined and then placed into a Petri dish. 10 L2 larvae of the American tobacco budworm (Heliothis virescens) were then added. The Petri dish was then closed with a lid. After 4 days of storage at about 23° C., the mortality among the larvae was determined. The following examples were active: 1036, 60.

CC1CCN(CC#Cc2cc(C(F)(F)F)cc(C(F)(F)F)n2)CC1 [Example 60]
active: effect on the eggs and hatched larvae (mortality) [1] | larvicidal action [2] | effect on the larvae (mortality) (Plutella maculipennis) | effect on the eggs and hatched larvae (mortality) (Heliothis virescens [3]) | effect on the larvae (mortality) [4] | mortality among the larvae (Spodoptera exigua) | mortality among the larvae (Heliothis virescens [5])
